Measurements published in US8921362B2, “6,7-dialkoxy quinazoline derivatives and methods of treating drug resistant and other tumors” (Natco Pharma Limited, priority 2008, dated 2014).

Key:
Experiment in all cases: KinomeScan
Type in all cases: binding
Conditions in all cases: read-out: % Ctrl @ 10000 nM
LCK = target: T1, LCK (Homo sapiens, UniProt P06239)
T1 construct: host or cells: T7 phage grown in E. coli host derived from BL21
Procedure, shortened: (§1)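 Competition binding of kinase-tagged T7 phage (BL21-derived E. coli lysates) to immobilized ligand on biotin-blocked beads; test compound diluted from 40× DMSO stocks, 2.5% DMSO in no-compound controls. Bound phage eluted and titer quantified by qPCR.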

EGFR = target: T2, EGFR (Homo sapiens, UniProt P00533)
T2 construct: purchased Ambit Biosciences Corp (KinomeScan); host or cells: T7 phage in E. coli host derived from BL21
Procedure, shortened: as §1

PRKCH = target: T3, PRKCH (Homo sapiens, UniProt P24723)
T3 construct: host or cells: T7 phage in E. coli host derived from BL21
Procedure, shortened: as §1

ERK3 = target: T4, ERK3 (Homo sapiens, UniProt Q16659)
T4 construct: purchased Ambit Biosciences Corp; host or cells: T7 phage in E. coli host derived from BL21
Procedure, shortened: as §1

TRKC = target: T5, TRKC (Homo sapiens, UniProt Q16288)
T5 construct: host or cells: E. coli host derived from BL21, T7 phage
Procedure, shortened: as §1

PRKCD = target: T6, PRKCD (Homo sapiens, UniProt Q05655)
T6 construct: host or cells: T7 phage in E. coli host derived from BL21
Procedure, shortened: as §1

EGFR(G719C) = target: T7, EGFR(G719C) (Homo sapiens, UniProt P00533, G719C)
T7 construct: purchased Ambit Biosciences Corp (KinomeScan); host or cells: T7 phage in E. coli host derived from BL21
Procedure, shortened: as §1

PIM2 = target: T8, PIM2 (Homo sapiens, UniProt Q9P1W9)
T8 construct: host or cells: T7 phage in E. coli host derived from BL21
Procedure, shortened: as §1

PCTK1 = target: T9, PCTK1 (Homo sapiens, UniProt Q00536)
T9 construct: host or cells: E. coli host derived from BL21, infected with T7 phage
Procedure, shortened: as §1

ZAK = target: T10, ZAK (Homo sapiens, UniProt Q9NYL2)
T10 construct: host or cells: T7 phage grown in an E. coli host derived from BL21
Procedure, shortened: as §1

PDGFRB = target: T11, PDGFRB (Homo sapiens, UniProt P09619)
T11 construct: host or cells: E. coli host derived from BL21, infected with T7 phage
Procedure, shortened: as §1

DMPK = target: T12, DMPK (Homo sapiens, UniProt Q09013)
T12 construct: purchased Ambit Biosciences Corp (KinomeScan); host or cells: T7 phage in E. coli host derived from BL21
Procedure, shortened: as §1

CDK9 = target: T13, CDK9 (Homo sapiens, UniProt P50750)
T13 construct: host or cells: T7 phage in E. coli host derived from BL21
Procedure, shortened: as §1

MLK2 = target: T14, MLK2 (Homo sapiens, UniProt Q02779)
T14 construct: host or cells: T7 phage grown in E. coli host derived from BL21
Procedure, shortened: as §1

RIOK2 = target: T15, RIOK2 (Homo sapiens, UniProt Q9BVS4)
T15 construct: host or cells: E. coli host derived from BL21, T7 phage display
Procedure, shortened: as §1

DDR2 = target: T16, DDR2 (Homo sapiens, UniProt Q16832)
T16 construct: purchased Ambit Biosciences Corp (KinomeScan); host or cells: T7 phage in E. coli host derived from BL21
Procedure, shortened: as §1

DYRK1B = target: T17, DYRK1B (Homo sapiens, UniProt Q9Y463)
T17 construct: purchased Ambit Biosciences Corp (KinomeScan); host or cells: T7 phage in E. coli host derived from BL21
Procedure, shortened: as §1

FLT3(D835H) = target: T18, FLT3(D835H) (Homo sapiens, UniProt P36888, D835H)
T18 construct: host or cells: T7 phage in E. coli host derived from BL21
Procedure, shortened: as §1

EPHB3 = target: T19, EPHB3 (Homo sapiens, UniProt P54753)
T19 construct: purchased Ambit Biosciences Corp; host or cells: T7 phage in E. coli host derived from BL21
Procedure, shortened: as §1

EPHA5 = target: T20, EPHA5 (Homo sapiens, UniProt P54756)
T20 construct: purchased Ambit Biosciences Corp; host or cells: T7 phage in E. coli host derived from BL21
Procedure, shortened: as §1

PHKG1 = target: T21, PHKG1 (Homo sapiens, UniProt Q16816)
T21 construct: host or cells: E. coli host derived from BL21, infected with T7 phage
Procedure, shortened: as §1

NEK5 = target: T22, NEK5 (Homo sapiens, UniProt Q6P3R8)
T22 construct: host or cells: T7 phage grown in E. coli host derived from BL21
Procedure, shortened: as §1

AKT3 = target: T23, AKT3 (Homo sapiens, UniProt Q9Y243)
T23 construct: host or cells: E. coli (BL21-derived), T7 phage lysate
Procedure, shortened: as §1

INSR = target: T24, INSR (Homo sapiens, UniProt P06213)
T24 construct: host or cells: T7 phage grown in E. coli host derived from BL21
Procedure, shortened: as §1

EPHB4 = target: T25, EPHB4 (Homo sapiens, UniProt P54760)
T25 construct: purchased Ambit Biosciences Corp; host or cells: T7 phage in E. coli host derived from BL21
Procedure, shortened: as §1

JNK3 = target: T26, JNK3 (Homo sapiens, UniProt P53779)
T26 construct: host or cells: T7 phage grown in E. coli host derived from BL21
Procedure, shortened: as §1

CAMK2D = target: T27, CAMK2D (Homo sapiens, UniProt Q13557)
T27 construct: host or cells: E. coli host derived from BL21
Procedure, shortened: as §1

MEK3 = target: T28, MEK3 (Homo sapiens, UniProt P46734)
T28 construct: host or cells: E. coli host derived from the BL21 strain, infected with T7 phage
Procedure, shortened: as §1

ITK = target: T29, ITK (Homo sapiens, UniProt Q08881)
T29 construct: host or cells: T7 phage grown in E. coli host derived from BL21
Procedure, shortened: as §1

CSNK1G2 = target: T30, CSNK1G2 (Homo sapiens, UniProt P78368)
T30 construct: purchased Ambit Biosciences Corp (KinomeScan); host or cells: T7 phage in E. coli host derived from BL21
Procedure, shortened: as §1

WEE1 = target: T31, WEE1 (Homo sapiens, UniProt P30291)
T31 construct: host or cells: E. coli host derived from BL21, T7 phage
Procedure, shortened: as §1

FER = target: T32, FER (Homo sapiens, UniProt P16591)
T32 construct: host or cells: T7 phage in E. coli host derived from BL21
Procedure, shortened: as §1

PRKX = target: T33, PRKX (Homo sapiens, UniProt P51817)
T33 construct: host or cells: E. coli host derived from BL21, T7 phage display
Procedure, shortened: as §1

p38-beta = target: T34, p38-beta (Homo sapiens, UniProt Q15759)
T34 construct: host or cells: E. coli host derived from BL21, infected with T7 phage
Procedure, shortened: as §1

T24 sequence (P06213 28-1382): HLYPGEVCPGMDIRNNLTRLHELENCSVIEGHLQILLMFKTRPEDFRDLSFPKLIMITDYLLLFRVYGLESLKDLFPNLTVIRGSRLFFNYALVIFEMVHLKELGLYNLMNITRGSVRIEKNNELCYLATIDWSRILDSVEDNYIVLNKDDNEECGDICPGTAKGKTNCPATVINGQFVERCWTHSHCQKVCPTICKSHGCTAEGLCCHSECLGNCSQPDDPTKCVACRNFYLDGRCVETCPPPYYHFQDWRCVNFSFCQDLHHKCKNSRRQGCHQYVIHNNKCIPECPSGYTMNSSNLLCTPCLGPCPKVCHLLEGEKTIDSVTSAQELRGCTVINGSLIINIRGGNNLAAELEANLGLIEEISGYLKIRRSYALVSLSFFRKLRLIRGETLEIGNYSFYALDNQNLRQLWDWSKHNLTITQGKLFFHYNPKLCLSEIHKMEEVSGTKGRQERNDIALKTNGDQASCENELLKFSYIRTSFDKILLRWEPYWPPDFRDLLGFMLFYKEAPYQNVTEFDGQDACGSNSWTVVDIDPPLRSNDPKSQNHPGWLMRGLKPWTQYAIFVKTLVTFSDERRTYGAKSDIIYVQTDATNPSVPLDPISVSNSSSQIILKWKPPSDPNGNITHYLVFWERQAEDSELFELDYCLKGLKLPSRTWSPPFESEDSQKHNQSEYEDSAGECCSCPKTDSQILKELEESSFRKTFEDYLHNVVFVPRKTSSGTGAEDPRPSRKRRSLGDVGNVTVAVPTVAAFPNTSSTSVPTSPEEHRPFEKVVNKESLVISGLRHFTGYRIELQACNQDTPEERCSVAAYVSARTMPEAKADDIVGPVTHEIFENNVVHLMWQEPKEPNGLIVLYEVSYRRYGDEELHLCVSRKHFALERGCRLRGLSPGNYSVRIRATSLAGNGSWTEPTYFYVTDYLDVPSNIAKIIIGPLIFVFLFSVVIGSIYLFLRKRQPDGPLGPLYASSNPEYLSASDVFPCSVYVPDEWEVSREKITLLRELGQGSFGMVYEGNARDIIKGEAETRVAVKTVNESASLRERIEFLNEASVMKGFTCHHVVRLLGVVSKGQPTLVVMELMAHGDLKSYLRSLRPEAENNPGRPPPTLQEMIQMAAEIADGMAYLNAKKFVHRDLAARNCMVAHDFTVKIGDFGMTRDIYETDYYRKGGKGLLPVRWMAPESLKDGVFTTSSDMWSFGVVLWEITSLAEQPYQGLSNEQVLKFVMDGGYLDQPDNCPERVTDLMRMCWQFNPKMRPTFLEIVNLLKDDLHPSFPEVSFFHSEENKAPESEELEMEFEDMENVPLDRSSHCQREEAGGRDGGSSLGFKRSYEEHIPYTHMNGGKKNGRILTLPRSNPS
T2 sequence (P00533 25-1210): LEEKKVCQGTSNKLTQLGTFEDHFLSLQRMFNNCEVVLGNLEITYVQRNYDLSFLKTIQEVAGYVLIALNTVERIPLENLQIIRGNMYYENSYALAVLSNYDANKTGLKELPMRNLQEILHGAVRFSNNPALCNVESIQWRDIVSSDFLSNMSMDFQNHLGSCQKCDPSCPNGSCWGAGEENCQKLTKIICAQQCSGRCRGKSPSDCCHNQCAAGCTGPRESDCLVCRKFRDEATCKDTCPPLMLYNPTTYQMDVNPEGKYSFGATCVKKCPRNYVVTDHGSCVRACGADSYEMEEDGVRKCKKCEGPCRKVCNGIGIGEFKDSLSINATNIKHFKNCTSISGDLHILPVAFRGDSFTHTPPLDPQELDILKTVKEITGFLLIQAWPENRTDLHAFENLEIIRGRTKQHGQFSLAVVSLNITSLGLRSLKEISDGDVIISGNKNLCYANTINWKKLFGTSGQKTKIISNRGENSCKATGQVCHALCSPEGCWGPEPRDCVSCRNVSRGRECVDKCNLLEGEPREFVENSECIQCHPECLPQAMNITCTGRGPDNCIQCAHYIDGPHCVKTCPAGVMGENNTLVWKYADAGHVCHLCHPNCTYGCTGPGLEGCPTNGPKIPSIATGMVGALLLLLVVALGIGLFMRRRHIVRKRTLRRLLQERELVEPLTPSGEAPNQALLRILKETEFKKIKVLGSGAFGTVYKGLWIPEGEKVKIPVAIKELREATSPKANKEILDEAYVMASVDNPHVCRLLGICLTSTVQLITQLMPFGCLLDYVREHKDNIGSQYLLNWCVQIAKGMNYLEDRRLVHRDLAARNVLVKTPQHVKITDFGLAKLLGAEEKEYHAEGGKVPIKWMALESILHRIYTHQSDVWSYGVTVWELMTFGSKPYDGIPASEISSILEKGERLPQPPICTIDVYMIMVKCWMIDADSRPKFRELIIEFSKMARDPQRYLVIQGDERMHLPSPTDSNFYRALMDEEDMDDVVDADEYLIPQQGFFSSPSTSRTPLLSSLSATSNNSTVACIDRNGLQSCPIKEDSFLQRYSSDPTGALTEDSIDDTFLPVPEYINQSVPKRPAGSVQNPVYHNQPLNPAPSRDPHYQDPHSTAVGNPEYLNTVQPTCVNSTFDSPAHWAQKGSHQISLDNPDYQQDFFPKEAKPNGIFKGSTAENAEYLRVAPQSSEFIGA
T4 sequence (Q16659 whole entry): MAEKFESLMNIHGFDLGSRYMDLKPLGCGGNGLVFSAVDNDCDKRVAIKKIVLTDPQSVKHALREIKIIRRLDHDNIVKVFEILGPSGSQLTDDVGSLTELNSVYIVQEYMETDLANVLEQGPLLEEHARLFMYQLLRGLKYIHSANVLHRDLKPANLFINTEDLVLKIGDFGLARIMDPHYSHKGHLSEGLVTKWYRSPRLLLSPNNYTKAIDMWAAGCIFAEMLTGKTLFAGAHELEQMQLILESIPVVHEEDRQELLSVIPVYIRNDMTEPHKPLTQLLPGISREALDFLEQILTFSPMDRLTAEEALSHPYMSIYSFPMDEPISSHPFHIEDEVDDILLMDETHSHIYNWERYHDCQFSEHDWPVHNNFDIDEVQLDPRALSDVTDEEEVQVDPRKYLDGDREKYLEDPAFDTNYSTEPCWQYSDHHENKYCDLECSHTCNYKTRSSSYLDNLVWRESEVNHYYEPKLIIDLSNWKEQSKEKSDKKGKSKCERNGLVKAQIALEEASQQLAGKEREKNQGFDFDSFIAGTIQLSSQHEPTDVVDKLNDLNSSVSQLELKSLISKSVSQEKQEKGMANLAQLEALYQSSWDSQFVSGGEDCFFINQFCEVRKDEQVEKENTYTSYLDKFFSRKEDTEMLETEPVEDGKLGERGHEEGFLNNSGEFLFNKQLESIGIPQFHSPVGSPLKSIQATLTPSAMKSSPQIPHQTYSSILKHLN
T17 sequence (Q9Y463 whole entry): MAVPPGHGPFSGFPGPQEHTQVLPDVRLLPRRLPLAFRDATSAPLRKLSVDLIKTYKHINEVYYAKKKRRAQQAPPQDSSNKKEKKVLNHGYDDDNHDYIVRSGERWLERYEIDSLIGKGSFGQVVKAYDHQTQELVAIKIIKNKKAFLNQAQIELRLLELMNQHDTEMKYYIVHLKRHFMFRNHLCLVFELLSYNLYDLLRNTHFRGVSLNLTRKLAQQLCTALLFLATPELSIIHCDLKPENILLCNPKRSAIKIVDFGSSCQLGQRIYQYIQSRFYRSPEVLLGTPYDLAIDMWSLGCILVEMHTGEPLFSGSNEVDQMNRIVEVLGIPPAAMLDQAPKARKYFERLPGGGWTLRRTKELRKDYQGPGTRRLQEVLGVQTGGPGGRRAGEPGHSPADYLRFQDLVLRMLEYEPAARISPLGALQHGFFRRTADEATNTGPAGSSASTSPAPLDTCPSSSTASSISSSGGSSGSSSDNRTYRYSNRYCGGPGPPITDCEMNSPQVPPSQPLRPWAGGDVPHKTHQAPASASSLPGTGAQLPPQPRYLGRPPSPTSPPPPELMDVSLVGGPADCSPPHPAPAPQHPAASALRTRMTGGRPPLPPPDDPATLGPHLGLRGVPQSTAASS
T9 sequence (Q00536 whole entry): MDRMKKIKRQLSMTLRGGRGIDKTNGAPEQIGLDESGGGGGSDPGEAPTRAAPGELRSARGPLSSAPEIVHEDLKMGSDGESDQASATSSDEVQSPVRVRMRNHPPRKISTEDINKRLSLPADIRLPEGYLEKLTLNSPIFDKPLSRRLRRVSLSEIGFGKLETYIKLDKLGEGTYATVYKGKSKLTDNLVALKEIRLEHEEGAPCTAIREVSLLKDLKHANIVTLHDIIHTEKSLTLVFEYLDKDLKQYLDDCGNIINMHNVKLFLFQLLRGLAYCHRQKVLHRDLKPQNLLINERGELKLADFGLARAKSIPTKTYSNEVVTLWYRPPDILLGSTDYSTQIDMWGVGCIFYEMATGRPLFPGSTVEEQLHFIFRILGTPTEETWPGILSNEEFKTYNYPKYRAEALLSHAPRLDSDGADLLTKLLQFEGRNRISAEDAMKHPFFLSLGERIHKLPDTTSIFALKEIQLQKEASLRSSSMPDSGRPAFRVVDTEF
T31 sequence (P30291 whole entry): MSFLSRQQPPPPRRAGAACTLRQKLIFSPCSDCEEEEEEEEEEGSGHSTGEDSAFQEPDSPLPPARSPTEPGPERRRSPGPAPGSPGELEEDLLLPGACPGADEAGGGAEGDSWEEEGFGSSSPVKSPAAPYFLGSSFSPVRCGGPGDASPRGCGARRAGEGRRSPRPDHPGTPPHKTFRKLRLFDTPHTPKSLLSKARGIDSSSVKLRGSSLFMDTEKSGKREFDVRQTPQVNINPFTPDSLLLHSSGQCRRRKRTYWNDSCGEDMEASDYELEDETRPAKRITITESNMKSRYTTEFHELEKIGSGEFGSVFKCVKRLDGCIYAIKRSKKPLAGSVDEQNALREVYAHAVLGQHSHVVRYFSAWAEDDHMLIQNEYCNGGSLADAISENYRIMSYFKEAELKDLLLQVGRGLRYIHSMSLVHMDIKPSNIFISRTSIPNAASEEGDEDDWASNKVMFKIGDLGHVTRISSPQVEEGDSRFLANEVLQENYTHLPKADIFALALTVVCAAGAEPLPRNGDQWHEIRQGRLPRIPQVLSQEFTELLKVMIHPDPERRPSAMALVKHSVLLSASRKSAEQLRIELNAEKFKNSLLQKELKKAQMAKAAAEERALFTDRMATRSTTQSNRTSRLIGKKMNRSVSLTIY

C#Cc1cccc(Nc2ncnc3cc(OC)c(OCCCN4CCOCC4)cc23)c1 [NRC-2694, N-(3-ethynylphenyl)-7-methoxy-6-[3-(4-morpholinyl)propoxy]-4-quinazolinamine]
remaining binding at 10 µM (LCK): 1.5% | remaining binding at 10 µM (EGFR): 0% | remaining binding at 10 µM (PRKCH): 83% | remaining binding at 10 µM (ERK3): 10% | remaining binding at 10 µM (TRKC): 80% | remaining binding at 10 µM (PRKCD): 84% | remaining binding at 10 µM (EGFR(G719C)): 0% | remaining binding at 10 µM (PIM2): 83% | remaining binding at 10 µM (PCTK1): 100% | remaining binding at 10 µM (ZAK): 74% | remaining binding at 10 µM (PDGFRB): 10% | remaining binding at 10 µM (DMPK): 6.8% | remaining binding at 10 µM (CDK9): 86% | remaining binding at 10 µM (MLK2): 83% | remaining binding at 10 µM (RIOK2): 43% | remaining binding at 10 µM (DDR2): 76% | remaining binding at 10 µM (DYRK1B): 66% | remaining binding at 10 µM (FLT3(D835H)): 8.1% | remaining binding at 10 µM (EPHB3): 75% | remaining binding at 10 µM (EPHA5): 86% | remaining binding at 10 µM (PHKG1): 50% | remaining binding at 10 µM (NEK5): 94% | remaining binding at 10 µM (AKT3): 66% | remaining binding at 10 µM (INSR): 90% | remaining binding at 10 µM (EPHB4): 39% | remaining binding at 10 µM (JNK3): 77% | remaining binding at 10 µM (CAMK2D): 35% | remaining binding at 10 µM (MEK3): 100% | remaining binding at 10 µM (ITK): 82% | remaining binding at 10 µM (CSNK1G2): 76% | remaining binding at 10 µM (WEE1): 74% | remaining binding at 10 µM (FER): 94% | remaining binding at 10 µM (PRKX): 100% | remaining binding at 10 µM (p38-beta): 100%
